Laboratory results from article doi:10.1101/2025.10.22.684062 (bioRxiv, 2025).
Peptide text beside a SMILES is read from it.

Columns and labels:
[1] = In vivo plasma pharmacokinetics; details: ip, male C57BL/6 mouse, 5mg/kg intraperitoneal, LC-MS/MS
Experimental: Blood samples (100 μl) were obtained at 0, 0.25, 0.5, 1, 2, 4, 8, and 24 hours via tail vein bleeds.

[2] = test system: B16-F10 melanoma tumors; experiment: B16-F10 syngeneic mouse tumor model; assay type: in vivo, C57BL/6 mice; details: CST 10 mg/kg i.p. three times per week, tumor-bearing mice, n=9
Experimental: Age-matched male and female C57BL/6 mice (7–9 weeks, n = 9) were subcutaneously injected with 5 × 10^4 B16-F10 cells in 100 μL PBS. […] Tumor dimensions were measured with calipers, and volume was calculated using the formula V = (length × width^2)/2. Mice were euthanized 22 days post-inoculation. All procedures were approved by the IACUC of UCSD and the VA San Diego Healthcare System and conformed to NIH guidelines.
Tumors were fixed, paraffin-embedded, and sectioned (5 μm). Hematoxylin and eosin staining was performed at the La Jolla Institute for Immunology. Immunohistochemistry was carried out using the Super Sensitive™ M Polymer-HRP Kit (Biogenex). After deparaffinization, antigen retrieval was performed using Histo VT (Nacalai) at 90°C for 20 min. Sections were incubated overnight at 4°C with anti–Ki-67 (Abcam) or anti-CST (gift from Angelo Corti) at 1:100 dilution. Detection was performed with DAB and counterstained with hematoxylin. Slides were dehydrated and mounted in DPX. […]
Apoptotic nuclei were detected in tumor sections using the CF®594 TUNEL Assay Kit (Biotium). […] Fluorescence images were obtained using a Keyence microscope.
Tumor lysates were prepared in RIPA buffer containing protease inhibitors (Thermo Fisher). […] HRP-conjugated secondary antibodies (Cell Signaling Technology) were used, and signals were detected by chemiluminescence. […]

[3] = test system: Vemurafenib-resistant A375 cell line; experiment: Cell viability assay, Vemurafenib-resistant A375 cells; assay type: cell-based, human
Experimental: (§1) Viability was determined using the CCK-8 reagent (APExBIO). Absorbance was measured at 450 nm using a Varioskan LUX reader.
(§2) Vemurafenib-resistant A375 cells were generated following established protocol. Parental cells were treated with 100 nM Vemurafenib for 2 weeks, followed by stepwise doubling of drug concentration every 2 weeks up to 3.2 μM. Surviving cells in maintenance culture containing 2 μM drug was used for downstream studies.

[4] = test system: Vemurafenib-sensitive A375 cell line; experiment: Cell viability assay, Vemurafenib-sensitive (parental) A375 cells; assay type: cell-based; details: Homo sapiens, A-375
Experimental: as §1, §2

## CSCC[C@H](NC(=O)[C@H](CO)NC(=O)[C@@H](N)CO)C(=O)N[C@@H](CCCCN)C(=O)N[C@@H](CC(C)C)C(=O)N[C@@H](CO)C(=O)N[C@@H](Cc1ccccc1)C(=O)N[C@@H](CCCNC(=N)N)C(=O)N[C@@H](C)C(=O)N[C@@H](CCCNC(=N)N)C(=O)N[C@@H](C)C(=O)N[C@@H](Cc1ccc(O)cc1)C(=O)NCC(=O)N[C@@H](Cc1ccccc1)C(=O)N[C@@H](CCCNC(=N)N)C(=O)NCC(=O)N1CCC[C@H]1C(=O)NCC(=O)N1CCC[C@H]1C(=O)N[C@@H](CCC(N)=O)C(=O)N[C@@H](CC(C)C)C(=O)O [CST, Catestatin] (H-SSMKLSFRARAYGFRGPGPQL-OH)
[1]; read-out: t1/2 (half-life) (converted)
  half-life: 82.8 min
[1]; tail vein bleeds 0-24 hours, read-out: Cmax (maximum concentration)
  Cmax: 148 ng/mL
[2]
  body weight and liver histology: No major changes in body weight or liver histology

## CCCS(=O)(=O)Nc1ccc(F)c(C(=O)c2c[nH]c3ncc(-c4ccc(Cl)cc4)cc23)c1F [Vemurafenib]
[3]; Homo sapiens, vemurafenib-resistant A-375, Vemurafenib-resistant A375 cells
  IC50: 1430 nM
[3]; resistant vs parental A375
  fold increase of IC50, resistant versus parental A375 cells: > 6 fold
[4]
  IC50: 229 nM
